Measurements taken from US12195482B1 (Arcus Biosciences, Inc., priority 2022, dated 2025).

What was measured:
recombinant human MER = molecular target: T1, recombinant human MER (Homo sapiens, UniProt Q12866); assay: Biochemical potency, HTRF KinEASE-TK kinase assay; settings: 1 nM MER, 700 μM ATP
T1 construct: purchased Invitrogen
T1 sequence (Q12866 21-999): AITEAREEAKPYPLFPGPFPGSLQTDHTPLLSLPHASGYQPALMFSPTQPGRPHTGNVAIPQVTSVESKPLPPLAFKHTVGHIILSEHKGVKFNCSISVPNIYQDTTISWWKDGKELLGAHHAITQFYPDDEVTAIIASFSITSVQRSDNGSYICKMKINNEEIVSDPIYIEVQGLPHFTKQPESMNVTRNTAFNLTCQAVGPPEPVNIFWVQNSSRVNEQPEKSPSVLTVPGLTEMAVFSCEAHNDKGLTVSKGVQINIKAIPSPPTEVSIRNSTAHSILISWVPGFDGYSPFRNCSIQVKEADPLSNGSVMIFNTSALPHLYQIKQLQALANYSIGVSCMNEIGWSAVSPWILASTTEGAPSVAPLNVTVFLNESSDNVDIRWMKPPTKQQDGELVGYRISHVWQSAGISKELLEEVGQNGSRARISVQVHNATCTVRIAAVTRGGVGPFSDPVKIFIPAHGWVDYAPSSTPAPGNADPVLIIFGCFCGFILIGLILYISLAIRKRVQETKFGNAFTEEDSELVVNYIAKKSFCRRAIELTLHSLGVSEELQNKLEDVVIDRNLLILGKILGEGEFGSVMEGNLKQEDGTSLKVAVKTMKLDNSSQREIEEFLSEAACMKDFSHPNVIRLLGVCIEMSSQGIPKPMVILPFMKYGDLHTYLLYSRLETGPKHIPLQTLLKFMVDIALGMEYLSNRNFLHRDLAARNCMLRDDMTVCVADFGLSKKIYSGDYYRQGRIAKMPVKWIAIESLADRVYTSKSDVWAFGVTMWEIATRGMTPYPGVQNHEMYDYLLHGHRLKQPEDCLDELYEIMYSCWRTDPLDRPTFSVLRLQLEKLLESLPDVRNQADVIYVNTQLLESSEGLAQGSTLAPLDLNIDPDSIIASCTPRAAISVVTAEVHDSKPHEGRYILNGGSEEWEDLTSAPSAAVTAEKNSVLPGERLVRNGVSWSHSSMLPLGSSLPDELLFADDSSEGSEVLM
Protocol: Measurement of Biochemical Compound Potency of Axl Inhibitors
Purified recombinant human AXL, TYRO3 and MER proteins were purchased from Invitrogen™. 10 nM AXL, 2 nM TYRO3 or MER were incubated with varying concentrations of compounds in 50 mM HEPES, pH 7.4, 10 mM MgCl2, 0.01% BSA, 1 mM DTT and 2% DMSO in a total volume of 20 μl in a 384-well microplate (Corning™ #3640) at RT for 1 h. The AXL, TYRO3 and MER enzymatic reaction was initiated by transferring 10 μl of enzyme and compound mixture into 10 μl of 1.6 μM TK Substrate-biotin (HTRF® KinEASE-TK kit, Cisbio) and 1400 μM ATP pre-incubated in 50 mM HEPES, pH 7.4, 10 mM MgCl2, 0.01% BSA, 1 mM DTT in a 384-well microplate (Corning™ #3640) at RT, giving the final reaction conditions: 5 nM AXL, 1 nM TYRO3 or MER, 800 nM TK Substrate-biotin and 700 μM ATP in 50 mM HEPES, pH 7.4, 10 mM MgCl2, 0.01% BSA, 1 mM DTT and 1% DMSO with varying concentrations of compounds. Following 2 h incubation at RT, the AXL, TYRO3 and MER enzymatic reaction was stopped by transfer of 10 μl of reaction into 10 μl of detection mix (400 nM Streptavidin-XL665, 200-fold dilution TK Antibody-Cryptate and detection buffer, HTRF® KinEASE-TK kit, Cisbio) in a white 384-well microplate (Perkin Elmer, OptiPlate 384). After 1 h incubation at RT, the plate was put into a plate reader (Evision) to read at 665/620 nm (acceptor/donor) for HTRF. The value of the DMSO blank (MIN inhibition=100% activity) was used as a negative control. The positive control was established by adding 5 μl of enzyme and DMSO mixture into 10 μl of detection mix followed by addition of 5 μl of TK Substrate-biotin and ATP mixture (MAX inhibition=0% activity). To calculate the percent activity, Equation 1 was used. Ratio665/620 is the value at a given compound concentration: […]

p-AXL = molecular target: T2, p-AXL (Homo sapiens, UniProt P30530); assay: Axl phosphorylation inhibition ELISA in HEK293T cells transfected with NanoLuc-tagged AXL; assay type: cell-based; settings: 1 h compound incubation, media (OptiMEM)
T2 construct: expressed in transfected cells; host or cells: HEK293T
T2 sequence (P30530 26-894): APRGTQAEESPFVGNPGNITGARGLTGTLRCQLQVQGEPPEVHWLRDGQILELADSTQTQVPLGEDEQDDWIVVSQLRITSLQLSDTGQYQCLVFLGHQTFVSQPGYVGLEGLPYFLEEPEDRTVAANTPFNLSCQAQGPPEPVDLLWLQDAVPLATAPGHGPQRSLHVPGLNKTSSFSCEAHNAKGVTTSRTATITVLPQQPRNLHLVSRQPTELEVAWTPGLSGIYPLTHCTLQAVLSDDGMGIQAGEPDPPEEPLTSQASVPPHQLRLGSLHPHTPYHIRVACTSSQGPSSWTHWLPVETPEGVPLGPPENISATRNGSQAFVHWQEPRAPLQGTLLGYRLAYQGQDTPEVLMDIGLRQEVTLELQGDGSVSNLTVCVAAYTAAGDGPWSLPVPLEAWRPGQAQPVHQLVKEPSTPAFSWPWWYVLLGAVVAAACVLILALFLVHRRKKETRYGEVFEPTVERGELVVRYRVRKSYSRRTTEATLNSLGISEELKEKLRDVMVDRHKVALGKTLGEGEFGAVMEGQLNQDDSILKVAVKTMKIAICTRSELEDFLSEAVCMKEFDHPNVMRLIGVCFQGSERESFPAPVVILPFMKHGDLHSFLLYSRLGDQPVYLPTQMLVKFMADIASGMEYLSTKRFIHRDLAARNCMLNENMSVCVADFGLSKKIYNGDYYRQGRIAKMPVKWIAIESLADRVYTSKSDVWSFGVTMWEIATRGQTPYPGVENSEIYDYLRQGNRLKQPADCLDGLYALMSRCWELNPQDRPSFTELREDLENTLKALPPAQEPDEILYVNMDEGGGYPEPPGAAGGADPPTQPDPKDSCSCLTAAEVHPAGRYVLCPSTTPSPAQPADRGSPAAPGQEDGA
Outline: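 HEK293T cells transiently transfected one day earlier with NanoLuc-tagged AXL were exposed to 22-point 2-fold compound dilutions for 1 h at 37° C (70,000 cells/well), then lysed. Lysates captured on anti-phospho-tyrosine coated plates for 2 h; bound p-AXL read by NanoLuc luminescence; IC50 from 4-parameter logistic fit.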

Axl = molecular target: T3, Axl (Homo sapiens, UniProt P30530); assay: Biochemical potency, HTRF KinEASE-TK kinase assay; set-up: purchased Invitrogen; settings: 5 nM AXL, 700 μM ATP
T3 sequence (P30530 26-894): T2 sequence (P30530 26-894)
Outline: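 Steps: compound plus kinase, 1 h RT; add ATP (700 µM final) and biotin-TK substrate (800 nM final); run 2 h RT; stop into streptavidin-XL665/anti-phospho cryptate detection mix, 1 h; read 665/620. AXL at 5 nM, TYRO3 and MER at 1 nM.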

`Cc1ccc(C)c(-c2ccc(-c3n[nH]c4ncc(-c5ccc6c(c5)CC[C@@H](N5C7COC[C@H]5C7)CC6)cc34)nc2)n1` [Example 9, 3,6-Dimethyl-6′-{5-[(7S)-7-[(1R)-3-oxa-6-azabicyclo[3.1.1]heptan-6-yl]-6,7,8,9-tetrahydro-5H-benzo[7]annulen-2-yl]-1H-pyrazolo[3,4-b]pyridin-3-yl}-2,3′-bipyridine] was tested. Which IC50 (recombinant human MER) did it give?
Its IC50 is 100 to 1000 nM.

What about the IC50 (p-AXL) of the same molecule?
Its IC50 is under 100 nM.

What about the IC50 (Axl) of the same molecule?
Its IC50 is under 100 nM.

How did the IC50 (recombinant human MER) turn out when `Cc1cccnc1-n1cc(-c2n[nH]c3ncc(-c4ccc5c(c4)CC[C@@H](N4C6COCC4C6)CC5)cc23)cn1` [Example 79, 6-[(7S)-2-{3-[1-(3-Methylpyridin-2-yl)-1H-pyrazol-4-yl]-1H-pyrazolo[3,4-b]pyridin-5-yl}-6,7,8,9-tetrahydro-5H-benzo[7]annulen-7-yl]-3-oxa-6-azabicyclo[3.1.1]heptane] was run?
Its IC50 is 100 to 1000 nM.

And the IC50 (p-AXL)?
The IC50 was under 100 nM.

And the IC50 (Axl)?
The IC50 was under 100 nM.

Which IC50 (recombinant human MER) does the source give for `Cc1cccnc1-c1ccc(-c2n[nH]c3ncc(-c4ccc5c(c4)CC[C@@H](N4C6COCC4C6)CC5)cc23)nn1` [Example 17, 6-[(7S)-3-[3-[6-(3-Methylpyridin-2-yl)pyridazin-3-yl]-1H-pyrazolo[3,4-b]pyridin-5-yl]-6,7,8,9-tetrahydro-5H-benzo[7]annulen-7-yl]-3-oxa-6-azabicyclo[3.1.1]heptane] here?
Its IC50 is 100 to 1000 nM.

And the IC50 (p-AXL)?
The IC50 was under 100 nM.

What about the IC50 (Axl) of the same molecule?
The IC50 was under 100 nM.

What does the source list for `Cc1nccnc1-c1ccc(-c2n[nH]c3ncc(-c4ccc5c(c4)CC[C@@H](N4C6COCC4C6)CC5)cc23)nc1` [Example 55, 6-[(7S)-2-{3-[5-(3-Methylpyrazin-2-yl)pyridin-2-yl]-1H-pyrazolo[3,4-b]pyridin-5-yl}-6,7,8,9-tetrahydro-5H-benzo[7]annulen-7-yl]-3-oxa-6-azabicyclo[3.1.1]heptane]?
IC50 (recombinant human MER): > 1000 nM; IC50 (p-AXL): < 100 nM; IC50 (Axl): < 100 nM

For `O=C1OCCN1c1nccnc1-c1ccc(-c2n[nH]c3ncc(-c4ccc5c(c4)CC[C@@H](N4C6COCC4C6)CC5)cc23)cc1` [Example 126, 3-[3-(4-{5-[(7S)-7-{3-Oxa-6-azabicyclo[3.1.1]heptan-6-yl}-6,7,8,9-tetrahydro-5H-benzo[7]annulen-2-yl]-1H-pyrazolo[3,4-b]pyridin-3-yl}phenyl)pyrazin-2-yl]-1,3-oxazolidin-2-one], which IC50 (recombinant human MER) is on record?
Its IC50 is 100 to 1000 nM.

What about the IC50 (p-AXL) of the same molecule?
The IC50 was 100 to 1000 nM.

And the IC50 (Axl)?
Its IC50 is under 100 nM.
